Laboratory results taken from patent publication US20230203485A1, “METHODS FOR MODULATING MHC-I EXPRESSION AND IMMUNOTHERAPY USES THEREOF” (Dana-Farber Cancer Institute, Inc., priority 2020, published 2023).

System: class I antigen presentation gene expression in MCC cell lines
Test: RNA-seq / DESeq2 differential expression of MCC cell lines at baseline and after IFN-γ stimulation
Format: cell-based, human
Details: for log2FoldChange: 11 MCC cell lines, baseline vs IFNγ, negative LFC = upregulation in IFNγ-treated
Protocol: FIG. 2A comprises RNA-seq heatmaps of class I antigen presentation gene expression in MCC lines and controls.
FIG. 2B is a volcano plot of differentially expressed genes (genes below FDR cutoff 0.01 are shown in yellow) between baseline and IFN-γ-treated MCC cell lines. Differential expression analysis was performed using DESeq2, and negative LFC indicates increased expression in +IFN-γ samples. IFN genes are highlighted in red.
RNA samples were first assessed for quality using the Agilent Bioanalyzer (DV200 metric). One hundred ng of RNA were used as the input for first strand cDNA synthesis using Superscript III reverse transcriptase and Illumina's TruSeq RNA Access Sample Prep Kit. Synthesis of the second strand of cDNA was followed by indexed adapter ligation with UMI (unique molecular index) adaptors. Subsequent PCR amplification enriched for adapted fragments. Amplified libraries were quantified, normalized, pooled, and hybridized with exome targeting oligos. Following hybridization, bead clean-up, elution and PCR was performed to prepare library pools for sequencing on Illumina flowcell lanes. Transcriptomes were sequenced to a coverage of at least 50 million reads in pairs.
Raw fastq files for fibroblast and keratinocyte control lines were downloaded from SRA using R Bioconductor package SRAdb (Mayakonda et al. (2018) supra; Zhu et al. (2013) BMC Bioinformatics 14 (1): 1-4) using accession codes SRP126422 (4 replicates from control samples ‘NN’) and SRP131347 (6 replicates with condition: control and genotype: control). These fastq files, along with those for the mkl1 and waga cell lines, were aligned using STAR version 2.7.3a (Dobin et al. (2013) Bioinformatics 29 (1): 15-21), using index genome reference file downloaded from ftp.ebi.ac.uk/pub/databases/gencode/Gencode_human/release_19/GRCh37.p13.genome.fa.gz, transcript annotation file downloaded from data.broadinstitute.org/snowman/hg19/star/gencode.v19.annotation.gtf, and with the following options: --twopassMode Basic, --outSAMstrandField intronMotif, --alignIntronMax 1000000, --alignMatesGapMax 1000000, --sjdbScore 2, --outSAMtype BAM Unsorted, --outSAMattributes NH HI NM MD AS XS, --outFilterType BySJout, --outSAMunmapped Within, --genomeLoad NoSharedMemory, --outFilterScoreMinOverLread 0, --outFilterMatchNminOverLread 0, --outFilterMismatchNmax 999, and outFilterMultimapNmax 20. Duplicates were marked with picard MarkDuplicates version 2.22.0-SNAPSHOT.
RNA-sequencing bam files for MCC tumor and cell line samples were downloaded from the Broad Genomics Firecloud/Terra platform using the Google Cloud Storage command line tool gsutil version 4.5 (github.com/GoogleCloudPlatform/gsutil/).
Gene counts were obtained from bam files using featureCounts version 2.0.0 (doi.org/10.1093/bioinformatics/btt656). Very lowly expressed genes with average count across samples less than 1 were excluded from analysis. Between-sample distance metrics were computed using the Euclidean distance on the vectors of variance-stabilized counts obtained from the vst function in the DESeq2 R Bioconductor package ([…]; Love et al. (2014) Genome Biology 15 (12): 550).
Differential expression analysis was carried out between (1) viral positive and viral negative samples (adjusting for cell line or tumor as a covariate), (2) cell line and tumor samples (adjusting for viral status as a covariate), and (3) IFNγ plus and minus samples (adjusting for viral status as a covariate) using the negative binomial GLM Wald test of DESeq2, where significance was assessed using the p-values adjusted for multiple comparisons under default settings. To account for potential global gene expression differences among sample groups, RUVg (Risso et al. (2014) […] 32 (9): 896-902) was used to estimate latent factors of unwanted variation from the list of housekeeping genes downloaded from www.tau.ac.il/˜elieis/HKG/HK_genes.txt. […]

Substance “IFN-y: type II interferon, recombinant human, used to treat MCC cells” has a log2FoldChange (ENSG00000259321.1 (symbol NA)) of −2.031, a log2FoldChange (ENSG00000259529.1 (symbol NA)) of −0.9956 and a log2FoldChange (ENSG00000260929.1 (symbol NA)) of −3.413. For the same substance, the log2FoldChange (ENSG00000261644.1 (symbol NA)) was −3.585, the log2FoldChange (ENSG00000261690.1 (symbol NA)) was −3.339 and the log2FoldChange (ENSG00000261884.2 (symbol NA)) was −2.414. It also gave a log2FoldChange (ENSG00000262222.1 (symbol NA)) of −3.296, a log2FoldChange (ENSG00000262979.1 (symbol NA)) of −3.334 and a log2FoldChange (ENSG00000263013.1 (symbol NA)) of −1.286. For the same substance, the log2FoldChange (ENSG00000263120.1 (symbol NA)) was −1.445, the log2FoldChange (ENSG00000263179.1 (symbol NA)) was −3.474 and the log2FoldChange (ENSG00000269640.1 (symbol NA)) was −6.567. It also gave a log2FoldChange (ENSG00000271579.1 (symbol NA)) of −6.737, a log2FoldChange (ENSG00000273189.1 (symbol NA)) of −1.701 and a log2FoldChange (EPSTI1 ENSG00000133106.10) of −3.837. It also gave a log2FoldChange (FBXO7 ENSG00000100225.13) of −0.4101, a log2FoldChange (FBXO39 ENSG00000177294.6) of −6.492 and a log2FoldChange (FBXO47 ENSG00000204952.2) of −4.04. The log2FoldChange (FLT3LG ENSG00000090554.8) was −2.012, the log2FoldChange (HELZ2 ENSG00000130589.12) was −1.739 and the log2FoldChange (ICAM1 ENSG00000090339.4) was −6.633. The log2FoldChange (IFI27 ENSG00000165949.8) was −3.4, the log2FoldChange (IFI35 ENSG00000068079.3) was −6.454 and the log2FoldChange (IL12RB1 ENSG00000096996.11) was −4.561. It also gave a log2FoldChange (IRF8 ENSG00000140968.6) of −2.927, a log2FoldChange (IRF9 ENSG00000213928.4) of −2.537 and a log2FoldChange (ISG20 ENSG00000172183.10) of −2.416. The log2FoldChange (KRT39 ENSG00000196859.3) was −4.95, the log2FoldChange (LGALS3BP ENSG00000108679.8) was −1.502 and the log2FoldChange (LGALS9 ENSG00000168961.12) was −2.739. It also gave a log2FoldChange (LGALS17A ENSG00000226025.5) of −5.881, a log2FoldChange (LINC01993 ENSG00000204277.1) of −2.419 and a log2FoldChange (LOC254028 ENSG00000258573.1) of −5.436. The log2FoldChange (LOC100294362 ENSG00000263069.1) was 1.32, the log2FoldChange (LOC100996660 ENSG00000267248.1) was −0.6048 and the “HLA-A, -B, and -C mRNA” value (MCC-336, line non-IFN-responsive by flow cytometry) was “lack of IFN-induced HLA-A, -B, and -C mRNA upregulation”. For the same substance, the log2FoldChange (MIR762HG ENSG00000260083.1) was −0.6586, the log2FoldChange (MLKL ENSG00000168404.8) was −2.957 and the log2FoldChange (MT2A ENSG00000125148.6) was −1.532. The log2FoldChange (MVP ENSG00000013364.14) was −1.512, the log2FoldChange (MX2 ENSG00000183486.8) was −5.048 and the log2FoldChange (MXI ENSG00000157601.9) was −7.168. For the same substance, the log2FoldChange (NLRC5 ENSG00000140853.11) was −5.85, the log2FoldChange (NUCB1 ENSG00000104805.11) was −0.6283 and the log2FoldChange (OAS1 ENSG00000089127.8) was −4.621. For the same substance, the log2FoldChange (OAS2 ENSG00000111335.8) was −5.442, the log2FoldChange (OAS3 ENSG00000111331.8) was −2.277 and the log2FoldChange (OASL ENSG00000135114.8) was −6.129. It also gave a log2FoldChange (OGFR ENSG00000060491.12) of −1, a log2FoldChange (PARP4 ENSG00000102699.5) of −1.087 and a log2FoldChange (PATL2 ENSG00000229474.2) of −4.443. For the same substance, the log2FoldChange (PLK1 ENSG00000166851.10) was 0.5496, the log2FoldChange (PMAIP1 ENSG00000141682.11) was −0.9928 and the log2FoldChange (PML ENSG00000140464.15) was −1.421. The log2FoldChange (PSMA3 ENSG00000100567.8) was −0.4149, the log2FoldChange (PSMB10 ENSG00000205220.7) was −5.255 and the log2FoldChange (PSME1 ENSG00000092010.10) was −1.964. The log2FoldChange (PSME2 ENSG00000100911.9) was −1.919, the log2FoldChange (RAB2B ENSG00000129472.8) was −0.4425 and the log2FoldChange (RIN3 ENSG00000100599.11) was −2.337. The log2FoldChange (RNF31 ENSG00000092098.12) was −0.6387, the log2FoldChange (RNF213 ENSG00000173821.15) was −3.097 and the log2FoldChange (SAMHD1 ENSG00000101347.7) was −2.663. The log2FoldChange (SOCS1 ENSG00000185338.4) was −2.585, the log2FoldChange (SOCS3 ENSG00000184557.3) was −1.797 and the log2FoldChange (SPTLC3 ENSG00000172296.8) was −2.773. It also gave a log2FoldChange (STAT3 ENSG00000168610.10) of −0.9181, a log2FoldChange (TEKT5 ENSG00000153060.3) of −1.743 and a log2FoldChange (TRAFD1 ENSG00000135148.7) of −0.5883. It also gave a log2FoldChange (TRIM25 ENSG00000121060.10) of −1.048, a log2FoldChange (TRIM69 ENSG00000185880.8) of −2.829 and a log2FoldChange (USP18 ENSG00000184979.9) of −1.899. It also gave a log2FoldChange (USP30-AS1 ENSG00000256262.1) of −8.218, a log2FoldChange (VPS13C ENSG00000129003.11) of −0.9131 and a log2FoldChange (WARS ENSG00000140105.13) of −3.32. It also gave a log2FoldChange (WIPI1 ENSG00000070540.8) of −1.205, a log2FoldChange (XAFI ENSG00000132530.12) of −11.47 and a log2FoldChange (ZBP1 ENSG00000124256.10) of −5.347. It also gave a log2FoldChange (ZNFX1 ENSG00000124201.10) of −1.109.
